Measurements: patent publication US11370779B2, “Pharmaceutical composition for preventing or treating acute myeloid leukemia or metastatic breast cancer” (PELEMED CO., LTD., priority 2017, dated 2022)
Counter-ions that a name gives are not always drawn. Like-named read-outs stand apart in the source and are kept apart here. Values belong to the molecule of their own block, whether it stands above or below them.

Tests used:
FLT3 kinase = FLT3 kinase (Homo sapiens (Human), UniProt P36888); experiment: In vitro FLT3 kinase HTRF assay (Example 2); assay type: biochemical; conditions: HTRF
Protocol: Inhibition of the FLT3 kinase activity was measured using homogeneous, time-resolved fluorescence (HTRF) assays. Recombinant proteins containing the FLT3 kinase domain were purchased from Carna biosciences (Japan). Optimal enzyme, ATP, and substrate concentrations were established using the HTRF KinEASE kit (Cisbio, France) according to the manufacturer's instructions. The FLT3 enzymes were mixed in sequence with diluted compounds and peptide substrates in a kinase reaction buffer (50 mM HEPES (pH 7.0), 500 μM ATP, 0.1 mM sodium orthovanadate, 5 mM MgCl2, 1 mM DTT, 0.01% bovine serum albumin (BSA), and 0.02% NaN3). After the addition of the reagents for detection, the TR-FRET signal was measured using a Victor multilabel reader (Perkin Elmer, Waltham, Mass., USA). […] JAK2, JAK3, cMET, and RET in vitro kinase assays were also performed using the HTRF assay.

MV4;11 cells = experiment: Cell viability, EZ-Cytox tetrazolium assay, MV4;11; assay type: cell-based, human; conditions: 72 hours; for GI50: read-out: GI50(nM) MV4;11
Protocol: The cultured cells were incubated at 3° C. with 5% CO2.
(§1) Cell viability was assessed by a tetrazolium-based assay using the EZ-Cytox Cell Viability Assay kit (DaeilLab, Korea). Briefly, 2,000 to 15,000 cells were plated in 96-well plates in 100 μl of medium. The next day, the cells were treated with compounds together with dimethyl sulfoxide (DMSO) as a negative control. Three days (72 hours) after the drug addition, 15 μl of the EZ-Cytox kit reagent was added to each well of the 96-well plate and then incubated at 37° C. in a humidified CO2 incubator for 4 hours. After incubation, the optical density (OD) was measured at a wavelength of 450 nm using a Victor multilabel reader (Perkin Elmer, Waltham, Mass., USA).

MDA-MB-231 = experiment: Cell viability, EZ-Cytox tetrazolium assay, MDA-MB-231; assay type: cell-based, human; conditions: 72 hours
Protocol: MDA-MB-231 (metastatic breast cancer, ATCC HTB-26), Jurkat (human acute T lymphocytic leukemia, ATCC TIB-152), and K-562 (human chronic myelogenous leukemia, ATCC CCL-243) cells were cultured in RPMI-1640 (Sigma Co.). MCF7 (human breast adenocarcinoma, ATCC HTB-22) and PC-3 (human prostate adenocarcinoma, ATCC CRL-1435) cells were cultured in DMEM (Sigma Co.) medium supplemented with 10% fetal bovine serum and 1% penicillin/streptomycin. The cultured cells were incubated at 3° C. with 5% CO2.
as §1, with “USA). The IC50 was calculated by nonlinear regression using Prism version 5.01 (GraphPad, La Jolla, Calif., USA).” for “USA).”

MDA-MB-231 xenograft = experiment: MDA-MB-231 mouse tumor xenograft; assay type: in vivo; conditions: 20 mg/kg/p.o/day, 4 weeks
Protocol: 6-weeks-old Balb/c nu/nu mice (female) were purchased from Central Lab. Animal Inc. to be used. […] The candidate substances LDD-2614 (Compound 21), 2633 (Compound 28), 2634 (Compound 34), 2635 (Compound 33) were administered at 20 mg/kg/p.o/day, and doxorubicin, which was a control, was administered at 5 mg/kg/i.p (once a week) for 4 weeks.

MV4-11 xenograft = experiment: MV4-11 mouse tumor xenograft, oral administration
MOLM14 Wild type = experiment: Cell proliferation MTT assay, MOLM14 wild type; assay type: cell-based; conditions: Homo sapiens, MOLM-14
MOLM14 FLT3-ITD-D835Y = experiment: Cell proliferation MTT assay, MOLM14-ITD-D835Y; assay type: cell-based, human; conditions: for GI50: Homo sapiens, MOLM-14
[1] = Table 1, recombinant FLT3 kinase domain, 500 μM ATP

Sequence of FLT3 kinase (P36888 610-943): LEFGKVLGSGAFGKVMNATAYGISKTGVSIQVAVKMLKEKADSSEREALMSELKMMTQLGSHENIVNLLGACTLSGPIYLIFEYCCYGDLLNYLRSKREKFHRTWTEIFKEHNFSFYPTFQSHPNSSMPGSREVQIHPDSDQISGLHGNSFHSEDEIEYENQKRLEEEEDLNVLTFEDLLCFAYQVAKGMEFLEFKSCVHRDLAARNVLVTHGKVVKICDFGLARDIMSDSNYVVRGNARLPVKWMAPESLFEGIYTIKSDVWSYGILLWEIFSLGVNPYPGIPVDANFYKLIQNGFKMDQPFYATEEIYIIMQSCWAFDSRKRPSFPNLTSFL

- IC50 (FLT3 kinase; [1]): 19 nM
Molecule: COC(=O)c1ccc2c(c1)/C(=C1/Nc3ccccc3/C1=N\OCCBr)C(=O)N2 [Compound 2, Methyl (2Z,3E)-3-((2-bromoethoxy)imino)-2′-oxo-[2,3′-biindolinylidene]-5′-carboxylate]
- IC50 (MV4;11 cells; Homo sapiens, MV4-11, Table 1): 51 nM

- IC50 (FLT3 kinase; [1]): 5 nM
Molecule: COC(=O)c1ccc2c(c1)/C(=C1/Nc3ccccc3/C1=N\OCCN)C(=O)N2 [Compound 3, Methyl (2Z,3E)-3-((2-aminoethoxy)imino)-2′-oxo-[2,3′-biindolinylidene]-5′-carboxylate hydrochloride]
- IC50 (MV4;11 cells; Homo sapiens, MV4-11, Table 1): 15 nM

- IC50 (FLT3 kinase; [1]): 8 nM
Molecule: O=C1Nc2ccc(C(=O)O)cc2/C1=C1/Nc2ccccc2/C1=N\O [Compound 7, (2Z,3E)-3-(hydroxyimino)-2′-oxo-[2,3′-biindolinylidene]-5′-carboxylic acid]
- IC50 (MV4;11 cells; Homo sapiens, MV4-11, Table 1): 4020 nM
- Ic50 (nM) MV4;11 (MV4;11 cells; Table 1): lacking anti-proliferative activity

- IC50 (FLT3 kinase; [1]): 13 nM
Molecule: O=C1Nc2ccc(C(=O)O)cc2/C1=C1/Nc2ccccc2/C1=N\OCCBr [Compound 8, (2Z,3E)-3-((2-bromoethoxy)imino)-2′-oxo-[2,3′-biindolinylidene]-5′-carboxylic acid]
- IC50 (MV4;11 cells; Homo sapiens, MV4-11, Table 1): 340 nM

- IC50 (FLT3 kinase; [1]): 3 nM
Molecule: NCCO/N=C1/C(=C2/C(=O)Nc3ccc(C(=O)O)cc32)Nc2ccccc21 [Compound 9, (2Z,3E)-3-((2-aminoethoxy)imino)-2′-oxo-[2,3′-biindolinylidene]-5′-carboxylic acid hydrochloride]
- IC50 (MV4;11 cells; Homo sapiens, MV4-11, Table 1): 150 nM

- IC50 (FLT3 kinase; Table 2): 939 nM
Molecule: O=C1Nc2ccc(F)cc2/C1=C1/Nc2ccc(F)cc2/C1=N\OCCN1CCOCC1 [Compound 27, (2Z,3E)-5,5′-difluoro-3-((2-morpholinoethoxy)imino)-[2,3′-biindolinylidene]-2′-one hydrochloride]
- GI50 (MV4;11 cells; Homo sapiens, MV4-11): 116 nM
- GI50 (MDA-MB-231; Homo sapiens, MDA-MB-231): > 10 nM

- weights of the liver and the kidney (MDA-MB-231 xenograft): no significant difference
Molecule: CN1CCN(CCO/N=C2/C(=C3/C(=O)Nc4ccc(F)cc43)Nc3ccccc32)CC1.Cl.Cl [Compound 34, (2Z,3E)-5′-fluoro-3-((2-(4-methylpiperazin-1-yl)ethoxy)imino)-[2,3′-biindolinylidene]-2′-one dihydrochloride]
- GI50 (MV4;11 cells; Homo sapiens, MV4-11): 11.1 nM
- GI50 (MDA-MB-231; Homo sapiens, MDA-MB-231): 127 nM

Second part, the molecule before the results:

Molecule: O=C1Nc2ccc([N+](=O)[O-])cc2/C1=C1/Nc2ccc(O)cc2/C1=N\O [Compound 13, (2Z,3E)-5-hydroxy-3-(hydroxyimino)-5′-nitro-[2,3′-biindolinylidene]-2′-one]
- IC50 (FLT3 kinase; Table 2): 23.4 nM
- GI50 (MV4;11 cells; Homo sapiens, MV4-11): 170 nM
- GI50 (MDA-MB-231; Homo sapiens, MDA-MB-231): 568 nM

Molecule: Cl.Cl.O=C1Nc2ccc(F)cc2/C1=C1/Nc2ccc(F)cc2/C1=N\OCCN1CCNCC1 [Compound 21, (2Z,3E)-5,5′-difluoro-3-((2-(piperazin-1-yl)ethoxy)imino)-[2,3′-biindolinylidene]-2′-one dihydrochloride]
- weights of the liver and the kidney (MDA-MB-231 xenograft): no significant difference
- GI50 (MV4;11 cells; Homo sapiens, MV4-11): 8.9 nM
- GI50 (MDA-MB-231; Homo sapiens, MDA-MB-231): 121 nM

Molecule: Cl.Cl.O=C1Nc2ccccc2/C1=C1/Nc2ccccc2/C1=N\OCCN1CCNCC1 [Compound 28, (2Z,3E)-3-((2-(piperazin-1-yl)ethoxy)imino)-[2,3′-biindolinylidene]-2′-one dihydrochloride]
- weight loss or other signs of toxicity during the administration period (MV4-11 xenograft; 20 mg/kg oral once daily for 21 days): no weight loss or any other signs of toxicity
- day by which the tumor disappeared (MV4-11 xenograft; 20 mg/kg oral once daily, based on measured tumor volume): ≤ 14 days
- weights of the liver and the kidney (MDA-MB-231 xenograft): no significant difference
- GI50 (MV4;11 cells; Homo sapiens, MV4-11): 0.51 nM
- GI50 (MDA-MB-231; Homo sapiens, MDA-MB-231): 276 nM

Molecule: CN1CCN(CCO/N=C2/C(=C3/C(=O)Nc4ccc(Br)cc43)Nc3ccccc32)CC1 [Compound 41, (2Z,3E)-5′-bromo-3-((2-(4-methylpiperazin-1-yl)ethoximino)-[2,3′-biindolinylidene]-2′-one dihydrochloride]
- IC50 (FLT3 kinase; Table 2): 4.8 nM
- GI50 (MV4;11 cells): 25 nM

Molecule: CC1(COc2ccc3c(c2)ncn3-c2ccc3cccc(N4CCC(N)CC4)c3n2)COC1 [Crenolanib]
- GI50 (MOLM14 Wild type): 4.7 nM
- GI50 (MOLM14 FLT3-ITD-D835Y): 15 nM

Molecule: CCc1nc(C(N)=O)c(Nc2ccc(N3CCC(N4CCN(C)CC4)CC3)c(OC)c2)nc1NC1CCOCC1 [Gilteritinib]
- GI50 (MOLM14 Wild type): 8.5 nM
- GI50 (MOLM14 FLT3-ITD-D835Y): 43 nM

Molecule: CO[C@@H]1[C@H](N(C)C(=O)c2ccccc2)C[C@H]2O[C@]1(C)n1c3ccccc3c3c4c(c5c6ccccc6n2c5c31)C(=O)NC4 [Midostaurin]
- GI50 (MOLM14 Wild type): 80 nM
- GI50 (MOLM14 FLT3-ITD-D835Y): 79 nM

Molecule: CNC(=O)c1cc(Oc2ccc(NC(=O)Nc3ccc(Cl)c(C(F)(F)F)c3)cc2)ccn1 [Sorafenib]
- GI50 (MOLM14 Wild type): 28 nM
- GI50 (nM) MOLM14-ITD D835Y (MOLM14 FLT3-ITD-D835Y): No Activity

Molecule: (2Z,3E)-2′-oxo-3-((2-(piperazin-1-yl)ethoximino)-[2,3′-biindolinylidene]-5′-carboxylic acid dihydrochloride [Compound 10]
- IC50 (FLT3 kinase; [1]): 3 nM
- IC50 (MV4;11 cells; Table 1): 40 nM

Molecule: (2Z,3E)-3-((2-(4-methylpiperazin-1-yl)ethoxy)imino)-5′-(trifluoromethox[2,3′-biindolinylidene]-2′-one dihydrochloride [Compound 45]
- IC50 (FLT3 kinase; Table 2): 5.6 nM
- GI50 (MV4;11 cells): 22 nM

Molecule: (2Z,3E)-5′-fluoro-3-((2-(pyrrolidin-1-yl)ethoximino)-[2,3′-biindolinylidene]-2′-one hydrochloride [Compound 36]
- IC50 (FLT3 kinase; Table 2): 267 nM
- GI50 (MV4;11 cells): 212 nM
- GI50 (MDA-MB-231): 805 nM

Molecule: (2Z,3E)-34(2-(piperazin-1-yl)ethoxy)imino)-5′-(trifluoromethoxy)-[2,3′-biindolinylidene]-2′-one dihydrochloride [Compound 44]
- IC50 (FLT3 kinase; Table 2): 40.2 nM
- GI50 (MV4;11 cells): 20 nM
